How the values were obtained:
EP2 [1] = target: T1, EP2 (Homo sapiens, UniProt P43116); test: EP2 flipr functional assay; assay type: cell-based
Text: (§1) US 2007/0129552, incorporated by reference herein, describes the methods used to obtain the in vitro data in the table below.

EP2 [2] = target: T1, EP2; test: EP2 cAMP assay; assay type: cell-based
Text: as §1

EP2 [3] = target: T1, EP2; test: EP2 binding (Ki)
Text: as §1

EP4 = EP4 (Homo sapiens, UniProt P35408); test: EP4 binding (Ki)
Text: as §1

hDP = target: T2, hDP (Homo sapiens, UniProt Q13258); test: Other receptors functional assay, hDP; assay type: cell-based
T2 sequence (Q13258 1-359): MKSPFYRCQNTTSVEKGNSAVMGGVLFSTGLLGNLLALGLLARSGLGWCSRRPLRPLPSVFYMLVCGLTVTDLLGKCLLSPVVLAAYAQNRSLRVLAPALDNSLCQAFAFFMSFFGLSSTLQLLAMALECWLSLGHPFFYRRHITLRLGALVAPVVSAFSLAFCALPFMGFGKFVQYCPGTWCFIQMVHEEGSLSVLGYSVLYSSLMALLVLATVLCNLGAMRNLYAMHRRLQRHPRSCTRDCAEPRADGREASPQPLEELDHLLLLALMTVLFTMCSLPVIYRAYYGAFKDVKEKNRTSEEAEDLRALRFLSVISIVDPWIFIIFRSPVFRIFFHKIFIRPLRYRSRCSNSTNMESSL
Text: as §1

T1 sequence (P43116 whole entry): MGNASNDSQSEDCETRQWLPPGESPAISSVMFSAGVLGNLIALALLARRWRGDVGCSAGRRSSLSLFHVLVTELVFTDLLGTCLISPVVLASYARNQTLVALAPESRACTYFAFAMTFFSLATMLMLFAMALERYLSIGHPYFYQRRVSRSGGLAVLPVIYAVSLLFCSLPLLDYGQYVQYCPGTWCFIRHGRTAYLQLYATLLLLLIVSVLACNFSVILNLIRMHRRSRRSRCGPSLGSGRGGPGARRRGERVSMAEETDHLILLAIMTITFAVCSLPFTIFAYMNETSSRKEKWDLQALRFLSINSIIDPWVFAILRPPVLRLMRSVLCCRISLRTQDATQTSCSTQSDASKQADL
EP4, sequence (P35408 whole entry): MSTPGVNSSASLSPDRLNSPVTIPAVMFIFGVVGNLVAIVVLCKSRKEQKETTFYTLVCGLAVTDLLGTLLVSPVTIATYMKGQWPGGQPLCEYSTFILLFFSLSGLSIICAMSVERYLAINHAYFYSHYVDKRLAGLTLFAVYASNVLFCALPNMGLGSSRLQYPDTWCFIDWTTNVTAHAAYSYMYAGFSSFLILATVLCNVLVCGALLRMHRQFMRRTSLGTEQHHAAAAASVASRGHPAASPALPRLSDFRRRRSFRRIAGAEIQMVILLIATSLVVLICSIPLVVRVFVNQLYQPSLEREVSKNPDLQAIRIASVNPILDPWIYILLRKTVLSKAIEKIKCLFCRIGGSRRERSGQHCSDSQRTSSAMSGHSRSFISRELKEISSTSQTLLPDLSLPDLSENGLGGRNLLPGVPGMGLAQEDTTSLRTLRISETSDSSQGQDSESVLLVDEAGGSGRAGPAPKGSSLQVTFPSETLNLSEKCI

EC50 (EP2 [1]): 2820 nM | EC50 (EP2 [2]): 0.7 nM | Ki (EP2 [3]): 46 nM | Ki (EP4): 3980 nM | EC50 (hDP): 2190 nM
SMILES: CCCCCCc1ccc(-n2cccc2CCCc2ccc(C(=O)O)s2)cc1 [Example 1, 5-(3-(1-(4-hexylphenyl)-1H-pyrrol-2-yl)propyl)thiophene-2-carboxylic acid]

Reference: US7985765B2, “Therapeutic substituted pyrroles” (Allergan, Inc., priority 2008, dated 2011)
